# Source: paper PMC6399176, “Assembly of a heterodinuclear Mn/Fe cofactor is coupled to tyrosine–valine ether cross-link formation in the R2-like ligand-binding oxidase” (Journal of Biological Inorganic Chemistry, 2019)
# Target: T1, R2loxI (R2-like ligand-binding oxidase, R2lox) (Geobacillus kaustophilus, UniProt Q5KW80, A171F)
# T1 construct: gene GK2771; full-length, N-terminal hexahistidine tag, pET-46 Ek/LIC, E. coli BL21(DE3), purified metal-free
# Test: X-ray crystallography
# Details: oxidized resting state, Mn/Fe-soaked crystal; ligand co-purified, further up in the tunnel, not at the metals; modelled as C8 acid from partial density, true identity and chain length uncertain
# T1 sequence (Q5KW80 entry or part of it A171F): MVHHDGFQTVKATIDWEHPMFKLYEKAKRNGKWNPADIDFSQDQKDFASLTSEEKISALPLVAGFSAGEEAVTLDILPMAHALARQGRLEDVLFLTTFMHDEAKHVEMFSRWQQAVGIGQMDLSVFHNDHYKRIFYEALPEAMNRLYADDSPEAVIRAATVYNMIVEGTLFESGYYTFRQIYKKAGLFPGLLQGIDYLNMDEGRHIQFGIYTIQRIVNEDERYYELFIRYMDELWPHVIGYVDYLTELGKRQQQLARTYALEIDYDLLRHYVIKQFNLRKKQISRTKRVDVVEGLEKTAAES
compound,measurement,value
CCCCCCCC(=O)O [caprylic (C8) acid],X-ray crystallography,could only reasonably be modeled (as caprylic (C8) acid) in the oxidized state
